Like-named read-outs stand apart in the source and are kept apart here.
Key:
DKaiR1D [1] = biological target: T1, DKaiR1D (Drosophila melanogaster, UniProt Q9VDH5); assay type: cell-based; conditions: for activation of DKaiR1D: Xenopus oocytes, ligands of b17 all applied at 10 mM
[2] = test system: DKaiR1D ligand-binding domain; set-up: species or system Drosophila melanogaster; conditions: ligand 1 mM, trypsin 1:20, 60 min
DGluR1A [3] = biological target: T2, DGluR1A (Drosophila melanogaster, UniProt Q03445); test: DGluR1A coexpressed with Apis Stg1 in Xenopus oocytes; assay type: cell-based; conditions: for activation, % of the response to glutamate recorded in the same cell: agonists 3 mM
T2 sequence (Q03445 28-991): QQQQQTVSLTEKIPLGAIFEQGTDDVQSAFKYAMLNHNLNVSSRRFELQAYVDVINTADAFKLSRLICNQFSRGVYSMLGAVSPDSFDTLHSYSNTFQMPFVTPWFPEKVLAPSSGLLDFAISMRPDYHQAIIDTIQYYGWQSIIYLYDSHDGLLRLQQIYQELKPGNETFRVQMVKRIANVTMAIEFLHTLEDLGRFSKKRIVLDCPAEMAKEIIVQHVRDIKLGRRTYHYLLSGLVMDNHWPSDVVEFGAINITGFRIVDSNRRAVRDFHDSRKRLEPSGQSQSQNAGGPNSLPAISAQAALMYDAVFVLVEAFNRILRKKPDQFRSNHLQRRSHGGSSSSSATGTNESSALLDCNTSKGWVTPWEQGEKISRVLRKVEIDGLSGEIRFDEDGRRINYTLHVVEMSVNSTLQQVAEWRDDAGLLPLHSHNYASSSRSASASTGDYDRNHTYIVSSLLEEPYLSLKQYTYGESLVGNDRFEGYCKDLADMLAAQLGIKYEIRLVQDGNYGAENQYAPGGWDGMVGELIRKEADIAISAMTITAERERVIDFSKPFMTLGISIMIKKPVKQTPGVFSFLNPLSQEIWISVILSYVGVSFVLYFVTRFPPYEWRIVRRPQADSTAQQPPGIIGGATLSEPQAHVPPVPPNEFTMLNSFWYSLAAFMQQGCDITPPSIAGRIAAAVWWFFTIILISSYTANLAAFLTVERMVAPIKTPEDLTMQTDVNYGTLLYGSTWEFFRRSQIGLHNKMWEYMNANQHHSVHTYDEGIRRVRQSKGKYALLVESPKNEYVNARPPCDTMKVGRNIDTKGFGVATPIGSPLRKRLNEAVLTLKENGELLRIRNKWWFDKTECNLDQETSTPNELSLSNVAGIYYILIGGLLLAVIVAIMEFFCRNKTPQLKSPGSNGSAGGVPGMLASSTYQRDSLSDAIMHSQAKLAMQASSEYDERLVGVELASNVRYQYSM

[4] = test system: DGluR1A ligand-binding domain; set-up: species or system Drosophila melanogaster; conditions: ligand 1 mM, trypsin 1:20
DGluR1A Y792T [5] = test: Proteolysis protection assay of DGluR1A Y792T mutant; assay type: binding, Drosophila melanogaster; conditions: Figure S8B
DGluR1A Y792T [6] = biological target: DGluR1A Y792T (Drosophila melanogaster, UniProt Q03445, Y792T); test: Receptor activity of DGluR1A Y792T mutant; assay type: cell-based; conditions: Figure S8C
DGluR1A Y792T (Drosophila melanogaster, UniProt Q03445, Y792T), sequence (Q03445 28-991 Y792T): as the sequence (Q03445 28-991) above, with Y765T counted along it

DKaiR1D [7] = biological target: T1, DKaiR1D; assay type: cell-based
GluK2 = conditions: ref Plested and Mayer, 2007; cited from earlier work
DGluR1A [8] = biological target: T2, DGluR1A; conditions: 1992, cited from earlier work
DKaiR1D Q604R = DKaiR1D Q604R mutant responses in Xenopus oocytes; assay type: cell-based, Drosophila melanogaster; conditions: 3 μM toxin, 3 mM glutamate, -60 mV
[9] = 10 mM glutamate, decay fit by sum of two exponentials
[10] = NaCl, NaMeSO3 exchange experiment

## Cc1o[nH]c(=O)c1CC(N)C(=O)O (centres unmarked) [AMPA]
DKaiR1D [1]; -60 mV
  activation of DKaiR1D: but not AMPA, aspartate or NMDA produced activation
[2]
  protection from digestion by trypsin: inactive
DGluR1A [3]; -60 mV, Apis Stg1
  activation, % of the response to glutamate recorded in the same cell: 40 ± 4%
[4]
  protection from digestion by trypsin: but not AMPA, NMDA, aspartate or AP5 were protective
DGluR1A Y792T [5]
  binding in proteolysis protection assay: but not AMPA, binds strongly
DGluR1A Y792T [6]
  receptor activation: but not AMPA, binds strongly and produces full receptor activation

## NC(CCCP(=O)(O)O)C(=O)O (centres unmarked) [AP5]
DKaiR1D [1]; -60 mV
  activation of DKaiR1D: nor AP5 (Figure S5) produced DKaiR1D activation
[2]
  protection from digestion by trypsin: protective
[4]
  protection from digestion by trypsin: but not AMPA, NMDA, aspartate or AP5 were protective

## N#Cc1cc2[nH]c(=O)c(=O)[nH]c2cc1[N+](=O)[O-] [CNQX]
DKaiR1D [1]; antagonist 10 mM, -60 mV
  block of responses to 10 mM glutamate: 34.3 ± 3.0%
[2]
  protection from digestion by trypsin: weak protection
[4]
  protection from digestion by trypsin: protective

## N[C@H](CCCP(=O)(O)O)C(=O)O [D-AP5, 2(R)-amino-5-phosphonopentanoic acid]
DKaiR1D [1]
  block of responses to 1 mM glutamate: 22.7 ± 0.8%
  block of responses to 10 mM glutamate: 16.6 ± 1.0%

## N[C@@H](CCCP(=O)(O)O)C(=O)O [L-AP5]
DKaiR1D [1]; antagonist 10 mM, -60 mV
  block of responses to 1 mM glutamate: 35.7 ± 1.4%
  block of responses to 10 mM glutamate: 11.7 ± 1.2%

## CN[C@H](CC(=O)O)C(=O)O [NMDA]
DKaiR1D [1]
  IC50: 900 µM
DKaiR1D [1]; -60 mV
  activation of DKaiR1D: but not AMPA, aspartate or NMDA produced activation
DKaiR1D [1]; antagonist 10 mM, -60 mV
  block of responses to 10 mM glutamate: 79.2 ± 2.2%
[2]
  protection from digestion by trypsin: protective
DGluR1A [3]; agonist 3 mM, -60 mV, Apis Stg1
  activation of DGluR1A: no activation
[4]
  protection from digestion by trypsin: but not AMPA, NMDA, aspartate or AP5 were protective

## N[C@@H](CC(=O)O)C(=O)O [aspartate]
DKaiR1D [1]; -60 mV
  activation of DKaiR1D: but not AMPA, aspartate or NMDA produced activation
[2]
  protection from digestion by trypsin: to a lesser extent aspartate were also protective
DGluR1A [3]; -60 mV, Apis Stg1
  activation, % of the response to glutamate recorded in the same cell: 28 ± 8%

## N[C@@H](CCC(=O)O)C(=O)O [glutamate]
DKaiR1D [7]; 10 mM glutamate applied for 1 ms
  deactivation rate constant: 2523 ± 218 s⁻¹
DKaiR1D [7]; 10 mM glutamate applied for 1 ms, outside-out patch
  10–90% rise time: 217 ± 6 μs
DKaiR1D [7]; [9]
  desensitization kfast: 1317 ± 105 s⁻¹
  desensitization kslow: 107 ± 22 s⁻¹
DKaiR1D [7]; CsCl
  onset of desensitization kfast: 1884 ± 99 s⁻¹
  onset of desensitization kslow: 192 ± 28 s⁻¹
DKaiR1D [7]; NaCl, CsCl exchange experiment
  onset of desensitization kfast: 1504 ± 90 s⁻¹
  onset of desensitization kslow: 165 ± 27 s⁻¹
DKaiR1D [7]; [10]
  onset of desensitization kfast: 1970 ± 88 s⁻¹
  onset of desensitization kslow: 190 ± 31 s⁻¹
DKaiR1D [7]; NaMeSO3
  onset of desensitization kfast: 1985 ± 68 s⁻¹
  onset of desensitization kslow: 236 ± 39 s⁻¹
DKaiR1D [7]; twin pulse protocol, sum of two exponentials
  recovery from desensitization kslow: 9.9 s⁻¹
DKaiR1D [1]
  EC50: 10.7 ± 0.5 mM
DKaiR1D [1]; -60 mV
  activation of DKaiR1D: produced activation
[2]
  protection from digestion by trypsin: prevented digestion by trypsin
DGluR1A [3]
  EC50: 136 ± 8 µM
[4]
  protection from digestion by trypsin: protective
GluK2
  increase of rate of onset of desensitization on exchange of NaMeSO3 for NaCl: 7 fold

## C=C(C)[C@H]1CN[C@H](C(=O)O)[C@H]1CC(=O)O [kainate]
DKaiR1D [1]; -60 mV
  activation of DKaiR1D: produced activation
[2]
  protection from digestion by trypsin: prevented digestion by trypsin
DGluR1A [3]
  EC50: 125 ± 4 µM
[4]
  protection from digestion by trypsin: protective
DGluR1A [8]; read-out: EC50 for activation, prior studies ref Ultsch et al.
  EC50: 75 µM

## N[C@@H](Cn1oc(=O)[nH]c1=O)C(=O)O [quisqualate, quisqualic acid]
DKaiR1D [1]
  amplitude of responses relative to those to glutamate: 0.78 ± 0.03
DKaiR1D [1]; -60 mV
  activation of DKaiR1D: produced activation
[2]
  protection from digestion by trypsin: prevented digestion by trypsin
DGluR1A [3]; -60 mV, Apis Stg1
  activation, % of the response to glutamate recorded in the same cell: 41 ± 3%
[4]
  protection from digestion by trypsin: protective
DGluR1A Y792T [5]
  binding in proteolysis protection assay: binds strongly
DGluR1A Y792T [6]
  receptor activation: produces full receptor activation

## philanthotoxin-433
DKaiR1D [1]; 3 μM toxin, 3 mM glutamate, -60 mV, several minutes for full recovery
  block of wild type responses to glutamate by extracellular toxin: blocked
DKaiR1D Q604R
  block of Q604R mutant responses to glutamate: did not block
DGluR1A [8]; ref Ultsch et al.
  inhibition of DGluR1A: inhibition of DGluR1A by philanthotoxin
